Where two headings read alike, the source gives them in different places.
How the values were obtained:
PRMT5 [1] = biological target: T1, PRMT5 (Homo sapiens, UniProt O14744); test: PRMT5 biochemical IC50 assay with MTA as cofactor; details: PRMT5, MTA as cofactor; read-out: MTA IC50
T1 construct: purchased Viva (custom protein)

[2] = system: HAP1 MTAP-intact cell line; test: SDMA in-cell western assay, HAP1 MTAP-intact; assay type: cell-based; details: HAP1 MTAP-intact, read-out: MTAP HAP1 intact IC50
Method in brief: (§1)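 MTAP-null vs endogenous-MTAP HAP1 isogenic cells; in-cell western SDMA readout; IC50 per line.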

PRMT5 [3] = biological target: T1, PRMT5; test: PRMT5 biochemical IC50 assay with SAM as cofactor; details: PRMT5, SAM as cofactor; read-out: SAM IC50
[4] = system: HAP1 MTAP-deleted cell line; test: Viability assay, MTAP-deleted cell line; assay type: cell-based; details: Homo sapiens, read-out: HAP1 MTAP deleted viability
Excerpt: Table 1 additionally indicates IC50 values in a viability assay for the MTAP-deleted cell line (column 10), indicating the effect of treatment with compound on cell survival.

[5] = system: HAP1 MTAP-deleted cell line; test: SDMA in-cell western assay, HAP1 MTAP-deleted; assay type: cell-based; details: for IC50: Homo sapiens, HAP1, SDMA in-cell western, HAP1 MTAP-deleted, read-out: HAP 1 MTAP deleted IC50; for MTAP intact/deleted ratio: IC50 ratio HAP1 MTAP-intact / HAP1 MTAP-deleted, SDMA in-cell western
Method in brief: as §1

PRMT5 [6] = biological target: T1, PRMT5; test: PRMT5 biochemical IC50 assay with no cofactor; details: PRMT5, no cofactor; read-out: No Cofactor/ rel IC50
Excerpt: Table 1 indicates IC50 values (μM) against PRMT5 for exemplary compounds in the presence of SAM as cofactor, with no cofactor, and with MTA as cofactor, respectively (columns 4-6). […] Ki values can be calculated from the IC50 values as described in the Examples section. As detailed in the Examples section, for the assay performed in the presence of SAM, IC50=Ki×1.5 (Ki=IC50/1.5).

[7] = Homo sapiens, HAP1, SDMA in-cell western
[8] = HAP1, viability, HAP1 MTAP-deleted cell line
[9] = HAP1, viability assay, MTAP-deleted cell line

T1 sequence (O14744 whole entry): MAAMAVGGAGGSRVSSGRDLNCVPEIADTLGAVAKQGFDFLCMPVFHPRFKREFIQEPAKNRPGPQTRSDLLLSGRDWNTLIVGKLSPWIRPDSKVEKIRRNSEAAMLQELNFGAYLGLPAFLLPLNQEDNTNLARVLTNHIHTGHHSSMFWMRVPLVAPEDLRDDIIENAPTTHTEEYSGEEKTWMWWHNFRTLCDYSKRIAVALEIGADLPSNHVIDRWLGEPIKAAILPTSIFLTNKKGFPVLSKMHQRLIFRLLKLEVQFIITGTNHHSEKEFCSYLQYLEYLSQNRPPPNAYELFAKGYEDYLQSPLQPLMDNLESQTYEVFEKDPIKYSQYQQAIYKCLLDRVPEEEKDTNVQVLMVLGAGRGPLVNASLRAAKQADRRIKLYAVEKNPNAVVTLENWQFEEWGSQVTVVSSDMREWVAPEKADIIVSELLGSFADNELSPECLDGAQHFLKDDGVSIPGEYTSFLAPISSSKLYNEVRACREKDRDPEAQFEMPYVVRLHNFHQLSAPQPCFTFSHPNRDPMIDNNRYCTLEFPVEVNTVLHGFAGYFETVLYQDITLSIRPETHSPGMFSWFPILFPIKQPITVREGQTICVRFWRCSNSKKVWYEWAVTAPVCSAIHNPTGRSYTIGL
T1 sequence (Q9BQA1 whole entry partner): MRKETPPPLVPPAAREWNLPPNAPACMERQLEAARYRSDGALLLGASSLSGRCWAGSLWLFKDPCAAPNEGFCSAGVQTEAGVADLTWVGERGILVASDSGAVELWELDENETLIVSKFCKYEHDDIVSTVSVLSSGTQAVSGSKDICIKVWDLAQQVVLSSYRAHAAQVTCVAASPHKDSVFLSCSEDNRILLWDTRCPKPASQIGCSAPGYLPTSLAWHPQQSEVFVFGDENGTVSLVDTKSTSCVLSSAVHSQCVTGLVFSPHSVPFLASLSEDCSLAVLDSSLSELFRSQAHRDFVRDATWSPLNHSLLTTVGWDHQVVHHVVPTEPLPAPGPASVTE

| IC50 (PRMT5 [1]) [nM] | IC50 [2, 7] [nM] | IC50 (PRMT5 [3]) [nM] | IC50 [5] [nM] | IC50 (PRMT5 [6]) [nM] | IC50 ([2]; SDMA in-cell western) [nM] | SMILES | IC50 [4, 8] [µM] | MTAP intact/deleted ratio [5] | IC50 [4, 9] [µM] |
| --- | --- | --- | --- | --- | --- | --- | --- | --- | --- |
| < 50 | 100 to 1000 | 50 to 500 | < 100 | 50 to 500 | – | Cc1cc(NC(=O)C(=O)N2C[C@@H](C)CC[C@@H]2c2cc3cn[nH]c3s2)cnc1N (single isomer, unassigned) [Compound 1392] | < 1 | A (an IC50 ratio greater than or equal to 10 fold) | – |
| < 50 | – | 50 to 500 | < 100 | < 50 | < 100 | CCc1cc(NC(=O)C(=O)N2C[C@@H](C)CC[C@@H]2c2ccc3sc([C@H]4CCN(C)C(C)(C)C4)nc3c2)cnc1N (single isomer, unassigned) [Compound 1397] | < 1 | A (an IC50 ratio greater than or equal to 10 fold) | – |
| < 50 | 100 to 1000 | 50 to 500 | < 100 | < 50 | – | C[C@@H]1CC[C@@H](c2ccc3cn(C)nc3c2)N(C(=O)C(=O)Nc2cnc(N)c(C3CC3)c2)C1 (single isomer, unassigned) [Compound 1403] | < 1 | A (an IC50 ratio greater than or equal to 10 fold) | – |
| 50 to 500 | > 1000 | > 500 | > 1000 | > 500 | – | CC(=O)N1CCC(c2cccc(C3CCCCN3C(=O)C(=O)Nc3cncc(C)c3)c2)CC1 (centres unmarked) [Compound 7, 2-(2-(3-(1-acetylpiperidin-4-yl)phenyl)piperidin-1-yl)-N-(5-methylpyridin-3-yl)-2-oxoacetamide] | – | C (an IC50 ratio of less than 3 fold) | > 10 |
| < 50 | > 1000 | 50 to 500 | 100 to 1000 | 50 to 500 | – | Cc1cc(NC(=O)C(=O)N2CCCCC2c2cccs2)cnc1N (centres unmarked) [Compound 9, N-(6-Amino-5-methylpyridin-3-yl)-2-oxo-2-(2-(thiophen-2-yl)piperidin-1-yl)acetamide] | – | A (an IC50 ratio greater than or equal to 10 fold) | > 10 |
| 50 to 500 | > 1000 | > 500 | > 1000 | > 500 | – | Cc1cncc(NC(=O)C(=O)N2CCCCC2c2cccc(N(C)C)c2)c1 (centres unmarked) [Compound 15, 2-(2-(3-(dimethylamino)phenyl)piperidin-1-yl)-N-(5-methylpyridin-3-yl)-2-oxoacetamide] | – | C (an IC50 ratio of less than 3 fold) | > 10 |
| 50 to 500 | > 1000 | 50 to 500 | 100 to 1000 | > 500 | – | Cn1nccc1C1CCCCN1C(=O)C(=O)Nc1cncc(C(N)=O)c1 (centres unmarked) [Compound 26, 5-[[2-[2-(2-methylpyrazol-3-yl)-1-piperidyl]-2-oxo-acetyl]amino]pyridine-3-carboxamide] | – | A (an IC50 ratio greater than or equal to 10 fold) | > 10 |
| 50 to 500 | > 1000 | 50 to 500 | 100 to 1000 | > 500 | – | NC(=O)c1cncc(NC(=O)C(=O)N2CCCCC2c2ccccc2)c1 (centres unmarked) [Compound 29, 5-[[2-oxo-2-(2-phenyl-1-piperidyl)acetyl]amino]pyridine-3-carboxamide] | – | A (an IC50 ratio greater than or equal to 10 fold) | > 10 |
| 50 to 500 | > 1000 | 50 to 500 | 100 to 1000 | 50 to 500 | – | Cc1cc(NC(=O)C(=O)N2CCCCC2C2CCCCC2)cnc1N (centres unmarked) [Compound 30, N-(6-amino-5-methyl-3-pyridyl)-2-[2-cyclohexyl-1-piperidyl]-2-oxo-acetamide] | – | A (an IC50 ratio greater than or equal to 10 fold) | > 10 |
| 50 to 500 | > 1000 | 50 to 500 | > 1000 | 50 to 500 | – | Cc1cc(NC(=O)C(=O)N2CCCCC2c2cccnc2)cnc1N (centres unmarked) [Compound 38, N-(6-Amino-5-methyl-3-pyridyl)-2-oxo-2-[2-(3-pyridyl)-1-piperidyl]acetamide] | – | B (an IC50 ratio greater than or equal to 3 fold but lower than 10 fold) | > 10 |
| 50 to 500 | > 1000 | > 500 | 100 to 1000 | > 500 | – | CC1(C)CCC(c2ccccc2)N(C(=O)C(=O)Nc2cncc(C(N)=O)c2)C1 (centres unmarked) [Compound 45, 5-(2-(5,5-dimethyl-2-phenylpiperidin-1-yl)-2-oxoacetamido)nicotinamide] | – | A (an IC50 ratio greater than or equal to 10 fold) | > 10 |
| < 50 | > 1000 | 50 to 500 | 100 to 1000 | 50 to 500 | – | Cc1csc(C2CCCCN2C(=O)C(=O)Nc2cnc(N)c(C)c2)n1 (centres unmarked) [Compound 49, N-(6-Amino-5-methyl-3-pyridyl)-2-[2-(4-methylthiazol-2-yl)-1-piperidyl]-2-oxo-acetamide] | – | A (an IC50 ratio greater than or equal to 10 fold) | > 10 |
| 50 to 500 | > 1000 | > 500 | < 100 | 50 to 500 | – | Cc1cc(NC(=O)C(=O)N2CCCCC2C2CCCC2)cnc1N (centres unmarked) [Compound 61, N-(6-amino-5-methyl-3-pyridyl)-2-(2-cyclopentyl-1-piperidyl)-2-oxo-acetamide] | – | A (an IC50 ratio greater than or equal to 10 fold) | 1 to 10 |
| 50 to 500 | > 1000 | 50 to 500 | 100 to 1000 | > 500 | – | CC(C)C1CCCCN1C(=O)C(=O)Nc1cncc(C(N)=O)c1 (centres unmarked) [Compound 100, 5-[[2-(2-isopropyl-1-piperidyl)-2-oxo-acetyl]amino]pyridine-3-carboxamide] | – | A (an IC50 ratio greater than or equal to 10 fold) | > 10 |
| < 50 | > 1000 | 50 to 500 | < 100 | 50 to 500 | – | NC(=O)c1cncc(NC(=O)C(=O)N2CCCCC2C2CCCCC2)c1 (centres unmarked) [Compound 101, 5-(2-(2-cyclohexylpiperidin-1-yl)-2-oxoacetamido)nicotinamide] | – | A (an IC50 ratio greater than or equal to 10 fold) | > 10 |
| < 50 | > 1000 | 50 to 500 | 100 to 1000 | 50 to 500 | – | NC(=O)c1cncc(NC(=O)C(=O)N2CCCCC2C2CCC2)c1 (centres unmarked) [Compound 103, 5-[[2-(2-cyclobutyl-1-piperidyl)-2-oxo-acetyl]amino]pyridine-3-carboxamide] | – | A (an IC50 ratio greater than or equal to 10 fold) | > 10 |
| 50 to 500 | > 1000 | 50 to 500 | 100 to 1000 | > 500 | – | Cc1cc(NC(=O)C(=O)N2CCCCC2c2cccc3c2CC(=O)N3)cnc1N (centres unmarked) [Compound 116, N-(6-Amino-5-methyl-3-pyridyl)-2-oxo-2-[2-(2-oxoindolin-4-yl)-1-piperidyl]acetamide] | – | A (an IC50 ratio greater than or equal to 10 fold) | > 10 |
| 50 to 500 | > 1000 | 50 to 500 | 100 to 1000 | 50 to 500 | – | NC(=O)c1cncc(NC(=O)C(=O)N2CCCCC2c2ccccc2)c1N (centres unmarked) [Compound 119, 4-amino-5-[[2-oxo-2-(2-phenyl-1-piperidyl)acetyl]amino]pyridine-3-carboxamide] | – | A (an IC50 ratio greater than or equal to 10 fold) | > 10 |
| < 50 | > 1000 | 50 to 500 | 100 to 1000 | 50 to 500 | – | NC(=O)c1cncc(NC(=O)C(=O)N2CCCCC2c2cccs2)c1 (centres unmarked) [Compound 120, 5-[[2-Oxo-2-[2-(2-thienyl)-1-piperidyl]acetyl]amino]pyridine-3-carboxamide] | – | A (an IC50 ratio greater than or equal to 10 fold) | > 10 |
| < 50 | > 1000 | 50 to 500 | 100 to 1000 | 50 to 500 | – | Cc1cc(NC(=O)C(=O)N2CCCCC2c2csc3ccccc23)cnc1N (centres unmarked) [Compound 123, N-(6-Amino-5-methyl-3-pyridyl)-2-[2-(benzothiophen-3-yl)-1-piperidyl]-2-oxo-acetamide] | – | A (an IC50 ratio greater than or equal to 10 fold) | 1 to 10 |

Reference: patent US11999727B2 (Tango Therapeutics, Inc., priority 2020, dated 2024)
